{"source": "patent US20050118728A1", "about": "“Two-layer antibody capture system” (priority 2003, published 2005)", "system": "phospholipase C-γl", "test": "Effect of tyrosine kinase inhibitor on ATP-dependent stimulation of immunocaptured phospholipase C-γl catalytic activity ([3H]PtdIns(4,5)P2 hydrolysis)", "format": "biochemical", "conditions": "50 μM genistein, 20 minutes, 35° C.; enzyme captured from rat hippocampal formation P2 extract; in the presence of CaMKII, PKC and PKA inhibitors", "experimental": "Anti-phospholipase C-γl antibodies were coated onto biotinylated anti-globulin immobilized on streptavidin at 200 ng of rabbit polyclonal antibody/100 μL per well. Each well was then incubated with 20 μg of rat hippocampal P2 extract overnight, and, subsequently, washed three times (5 minutes each) with room temperature PBS buffer. […]\nPhospholipase C-γl enzyme activity was quantified essentially as described in Weeber et al. (Neurobiology of Learning and Memory 76 (2001) 151-182). […] 300 μL of the supernatant containing the reaction product ([^3H]Ins(1,4,5)P3) was removed and quantified by liquid scintillation spectroscopy. Immune-complex-dependent activity was calculated by subtracting background [^3H]Ins(1,4,5)P3 (release present in normal rabbit IgG antibody control samples) from the activity measured in wells containing anti-phospholipase C-γl antibody. Data were calculated as nanomoles Ins(1,4,5)P3 product formed per minute, or per mg protein, or per minute per mg protein present in the extract from which the enzyme was affinity purified.\nWe sought to determine whether the technique that we used for the affinity capture of phospholipase C-γl allowed for the detection of tyrosine kinase(s) that associate with the phospholipase C-γl. […] The wells were then rinsed with 1.25× phospholipase C assay buffer and the catalytic activity of the isozyme was determined. […]", "note": "“Also recorded” adds a separate entry of the source.", "data": [{"smiles": "O=c1c(-c2ccc(O)cc2)coc2cc(O)cc(O)c12", "note": "[genistein]", "values": [{"measurement": "ATP-dependent stimulation of phospholipase C-γl catalytic activity", "result": "blocks; also recorded: completely inhibited"}]}]}
